Experiment [1] addresses T1, recombinant USP1/UAF1 enzyme complex (Homo sapiens, UniProt O94782).
T1 construct: purchased Biortus
Description: Enzyme assay: deubiquitinase fluorometric assay with ubiquitin-Rhodamine substrate. The class given is biochemical. Conditions: USP1/UAF1, Ub-Rho110 substrate, 2 hours preincubation, 1 hour reaction. On the procedure:
Enzymatic inhibitory potency of the compounds was assessed in a deubiquitinase fluorometric assay using ubiquitin-Rhodamine (Ub-Rho110, R&D Systems) as substrate and the recombinant USP1/UAF1 enzyme complex (Biortus). Assays were performed in a final volume of 12 μL using black 384-well plates (Corning #4514) containing 50 mM HEPES (pH 7.5, BioRoYee), 0.5 mM EDTA, 1 mM dithiothreitol, 0.1 mg/mL bovine serum albumin, 50 nM Ub-Rhol10, 0.004 nM USP1/UAF1, and series diluted compounds from 10 μM to 0.5 nM (10 dilution steps). Assay-ready plates containing 40 nL of Echo-dispensed compound in DMSO were reconstituted with 2 μL of ddH2O, then 5 μL of USP1/UAF1 enzyme mixture was added and preincubated at room temperature for 2 hours. Enzymatic reaction was initiated by the addition of […] substrate mixture and assay allowed to proceed for 1 hour at room temperature before quenching with 3 μL of 150 mM citric acid. Fluorescence signal was detected via TECAN SPARK with excitation at 485 nm and emission at 535 nm. Data analysis was done using GraphPad Prism8 and IC50 values were obtained by 4-parameter logistic curve fitting.
Certain compounds were tested in the assays.

For a further experiment, the system named is MDA-MB-436 cells. Description: CTG Protocol (MDA-MB-436 GI50), antiproliferative activity. Format: cell-based, human. Conditions: MDA-MB-436 cells (BRCA1 mutation), 7-day incubation, CellTiter-Glo. Summed up: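 BRCA1-mutant MDA-MB-436 cells were seeded at 1000 cells/well in DMEM, left overnight, then exposed to a 9-point, 3-fold compound series for 7 days at 37 °C, 5% CO2. Viability was read by CellTiter-Glo luminescence. % inhibition was plotted against concentration to derive GI50.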

In a further experiment the test system is HCC1806 Ub-PCNA (USP1). Description: USP1 Western Blot Protocol (HCC1806 Ub-PCNA). Format: cell-based. The note with it: HCC1806 cells, 4 hours. An outline of the steps:
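HCC1806 cells seeded overnight, then treated 4 h at 37 °C with a 5-point, 4-fold dilution series (0.1% DMSO). Lysates immunoblotted for Ub-PCNA with fluorescent detection; inhibition expressed as % vehicle from Ub-PCNA upregulation, IC50 by four-parameter logistic fit.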

T1 sequence (O94782 whole entry): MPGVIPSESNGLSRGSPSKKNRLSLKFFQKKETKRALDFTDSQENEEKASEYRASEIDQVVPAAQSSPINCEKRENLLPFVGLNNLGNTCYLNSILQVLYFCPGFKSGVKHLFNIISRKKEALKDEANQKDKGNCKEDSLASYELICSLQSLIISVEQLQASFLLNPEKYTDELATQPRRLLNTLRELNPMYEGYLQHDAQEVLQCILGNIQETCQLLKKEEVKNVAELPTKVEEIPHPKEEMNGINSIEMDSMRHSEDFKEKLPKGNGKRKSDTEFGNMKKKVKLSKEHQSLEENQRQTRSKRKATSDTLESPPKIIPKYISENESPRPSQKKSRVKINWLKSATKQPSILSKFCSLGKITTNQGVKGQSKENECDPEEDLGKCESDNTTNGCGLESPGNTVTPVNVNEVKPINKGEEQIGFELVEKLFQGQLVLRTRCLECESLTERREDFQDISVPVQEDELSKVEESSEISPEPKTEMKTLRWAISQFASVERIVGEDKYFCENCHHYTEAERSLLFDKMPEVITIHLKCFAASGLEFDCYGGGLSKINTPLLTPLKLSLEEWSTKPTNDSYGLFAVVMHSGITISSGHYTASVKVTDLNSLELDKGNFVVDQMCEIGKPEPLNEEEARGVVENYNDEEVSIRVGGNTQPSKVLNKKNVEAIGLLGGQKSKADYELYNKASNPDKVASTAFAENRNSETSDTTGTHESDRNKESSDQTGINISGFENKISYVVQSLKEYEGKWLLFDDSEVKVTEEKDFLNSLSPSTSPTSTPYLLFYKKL
T1 sequence (Q8TAF3 whole entry partner): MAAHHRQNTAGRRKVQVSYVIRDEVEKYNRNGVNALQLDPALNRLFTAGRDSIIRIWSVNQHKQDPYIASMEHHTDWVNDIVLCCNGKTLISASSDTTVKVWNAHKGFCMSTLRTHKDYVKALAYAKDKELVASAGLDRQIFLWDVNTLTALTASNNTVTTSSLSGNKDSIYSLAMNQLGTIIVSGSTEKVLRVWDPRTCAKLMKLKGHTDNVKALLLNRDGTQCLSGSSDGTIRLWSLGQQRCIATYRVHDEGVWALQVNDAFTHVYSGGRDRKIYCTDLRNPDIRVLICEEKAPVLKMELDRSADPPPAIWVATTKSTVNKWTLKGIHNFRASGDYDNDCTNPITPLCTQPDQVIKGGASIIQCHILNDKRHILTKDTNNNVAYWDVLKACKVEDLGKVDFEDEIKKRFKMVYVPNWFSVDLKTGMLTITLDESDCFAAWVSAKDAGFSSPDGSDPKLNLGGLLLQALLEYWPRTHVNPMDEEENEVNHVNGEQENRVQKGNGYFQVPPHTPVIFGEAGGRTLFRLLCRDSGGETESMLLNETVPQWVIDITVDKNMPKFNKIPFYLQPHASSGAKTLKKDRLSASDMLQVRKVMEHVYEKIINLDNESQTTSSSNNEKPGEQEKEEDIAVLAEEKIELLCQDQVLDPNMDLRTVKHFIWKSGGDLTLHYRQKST

With `COc1ncnc(C2CC2)c1-c1ncc2cc(CN3CCN(C)CC3)c(=O)n(Cc3ccc(-c4nc(C(F)(F)F)cn4C)cc3)c2n1` [Compound 55, 2-(4-cyclopropyl-6-methoxypyrimidin-5-yl)-8-({4-[1-methyl-4-(trifluoromethyl)imidazo]-2-yl]phenylmethyl)-6-[(4-methylpiperazin-1-yl)methyl]pyrido[2,3-d]pyrimidin-7-one], the IC50 (in experiment [1]; in the experiment on HCC1806 Ub-PCNA (USP1)) was 10 to 100 nM each time. In the experiment on MDA-MB-436 cells, this molecule yielded a GI50 of 10 to 100 nM.

Turning to `COc1ncnc(C2CC2)c1-c1ncc2cc(CN(C)C)c(=O)n(Cc3ccc(-c4nc(C(F)(F)F)cn4C)cc3)c2n1` [Compound 56], the concentration for half-maximal inhibition (IC50) in experiment [1] is 10 to 100 nM; with HCC1806 Ub-PCNA (USP1), 100 to 1000 nM. This molecule showed a 50% growth inhibitory concentration (GI50) in the experiment with MDA-MB-436 cells of 10 to 100 nM.

On to `COc1ncnc(C2CC2)c1-c1ncc2ccc(=O)n(Cc3ccc(-c4nc(C(F)(F)F)cn4C4COC4)cc3)c2n1` [Compound 59, 2-(4-cyclopropyl-6-methoxypyrimidin-5-yl)-8-({4-[1-(oxetan-3-yl)-4-(trifluoromethyl)imidazol-2-yl]phenyl}methyl)pyrido[2,3-d]pyrimidin-7-one], for which the IC50 (in experiment [1]; in the experiment with HCC1806 Ub-PCNA (USP1) (Homo sapiens)) was 10 to 100 nM throughout. For the same molecule, in the experiment with MDA-MB-436 cells (Homo sapiens, 168 h), the 50% growth inhibitory concentration (GI50) was 10 to 100 nM.

Take `COc1ncnc(C2CC2)c1-c1ncc2ccc(=O)n(Cc3ccc(-c4nc(C(F)(F)F)cn4CC(F)F)cc3)c2n1` [Compound 61, 2-(4-cyclopropyl-6-methoxypyrimidin-5-yl)-8-({4-[1-(2,2-difluoroethyl)-4-(trifluoromethyl)imidazol-2-yl]phenyl}methyl)pyrido[2,3-d]pyrimidin-7-one]: the IC50 (in experiment [1]; in the experiment on HCC1806 Ub-PCNA (USP1) (Homo sapiens)) was 10 to 100 nM throughout. Also, in the experiment on MDA-MB-436 cells (Homo sapiens, 168 h), the GI50 fell in the range of 10 to 100 nM.

Turning to `COc1ncnc(C2CC2)c1-c1ncc2ccc(=O)n(Cc3ccc(-c4ncccc4F)cc3)c2n1` [Compound 65, 2-(4-cyclopropyl-6-methoxypyrimidin-5-yl)-8-{[4-(3-fluoropyridin-2-yl)phenyl]methyl}pyrido[2,3-d]pyrimidin-7-one], the IC50 was 10 to 100 nM in experiment [1] and greater than 1000 nM in the experiment with HCC1806 Ub-PCNA (USP1) (Homo sapiens). In addition, in the experiment with MDA-MB-436 cells (Homo sapiens, 168 h), the concentration for 50% growth inhibition (GI50) was in the range of 100 to 1000 nM.

In the case of `COc1cccnc1-c1ccc(Cn2c(=O)ccc3cnc(-c4c(OC)ncnc4C4CC4)nc32)cc1` [Compound 66, 2-(4-cyclopropyl-6-methoxypyrimidin-5-yl)-8-{[4-(3-methoxypyridin-2-yl)phenyl]methyl}pyrido[2,3-d]pyrimidin-7-one], the IC50 (in experiment [1]; in the experiment with HCC1806 Ub-PCNA (USP1) (Homo sapiens)) was 10 to 100 nM in each case. For the same molecule, the GI50 in the experiment with MDA-MB-436 cells (Homo sapiens, 168 h) lay in the range of 10 to 100 nM.

Consider `COc1ncnc(C2CC2)c1-c1ncc2cc(C3=CCN(C)CC3)c(=O)n(Cc3ccc(-c4nc(C(F)(F)F)cn4C)cc3)c2n1` [Compound 68], for which the IC50 was less than 10 nM in experiment [1] and 100 to 1000 nM in the experiment on HCC1806 Ub-PCNA (USP1). Besides, in the experiment with MDA-MB-436 cells, the 50% growth inhibitory concentration (GI50) was 10 to 100 nM.

On to `COc1ncnc(C2CC2)c1-c1ncc2cc(C(C)=O)c(=O)n(Cc3ccc(-c4nc(C(F)(F)F)cn4C)cc3)c2n1` [Compound 69], for which the IC50 (in experiment [1]; in the experiment with HCC1806 Ub-PCNA (USP1)) was 10 to 100 nM in each case. The 50% growth inhibitory concentration (GI50) in the experiment with MDA-MB-436 cells was 10 to 100 nM.

As to `COc1ncnc(C2CC2)c1-c1ncc2cc(C(C)(C)O)c(=O)n(Cc3ccc(-c4nc(C(F)(F)F)cn4C)cc3)c2n1` [Compound 70], the 50% inhibitory concentration (IC50) (in experiment [1]; in the experiment with HCC1806 Ub-PCNA (USP1)) was 10 to 100 nM throughout. The GI50 with MDA-MB-436 cells was in the range of 10 to 100 nM.

For the molecule `COc1cc(Cn2c(=O)ccc3cnc(-c4c(OC)ncnc4C4CC4)nc32)cc(F)c1-c1nc(C(F)(F)F)cn1C` [Compound 73, 2-(4-Cyclopropyl-6-Methoxypyrimidin-5-Yl)-8-({3-Fluoro-5-Methoxy-4-[1-Methyl-4-(Trifluoromethyl)Imidazol-2-Yl]Phenyl}Methyl)Pyrido[2,3-d]Pyrimidin-7-One], the IC50 (in experiment [1]; in the experiment with HCC1806 Ub-PCNA (USP1) (Homo sapiens)) was 10 to 100 nM in each case. The same molecule came in with a GI50 with MDA-MB-436 cells (Homo sapiens, 168 h) of 10 to 100 nM.

For `COc1ncnc(C2CC2)c1-c1ncc2ccc(=O)n(Cc3ccc(-c4ncccc4C)cc3)c2n1` [Compound 74, 2-(4-cyclopropyl-6-methoxypyrimidin-5-yl)-8-{[4-(3-methylpyridin-2-yl)phenyl]methyl}pyrido[2,3-d]pyrimidin-7-one], the 50% inhibitory concentration (IC50) (in experiment [1]; with HCC1806 Ub-PCNA (USP1) (Homo sapiens)) was 10 to 100 nM each time. Besides, the GI50 in the experiment with MDA-MB-436 cells (Homo sapiens, 168 h) lay within 10 to 100 nM.

Regarding `COc1ncnc(C2CC2)c1-c1ncc2ccc(=O)n(Cc3ccc(-c4nc(F)ccc4OC(C)C)cc3)c2n1` [Compound 76, 2-(4-cyclopropyl-6-methoxypyrimidin-5-yl)-8-{[4-(6-fluoro-3-isopropoxypyridin-2-yl)phenyl]methyl}pyrido[2,3-d]pyrimidin-7-one], the IC50 (in experiment [1]; in the experiment on HCC1806 Ub-PCNA (USP1) (Homo sapiens)) was 10 to 100 nM each time. In the experiment on MDA-MB-436 cells (Homo sapiens, 168 h), this molecule came in with a 50% growth inhibitory concentration (GI50) of 10 to 100 nM.

Take `COc1ncnc(C2CC2)c1-c1ncc2cc(C(F)F)c(=O)n(Cc3ccc(-c4nc(C(F)(F)F)cn4C)cc3)c2n1` [Compound 77]: the half-maximal inhibitory concentration (IC50) (in experiment [1]; in the experiment on HCC1806 Ub-PCNA (USP1)) was 10 to 100 nM throughout. The same molecule displayed a concentration for 50% growth inhibition (GI50) in the experiment on MDA-MB-436 cells of 10 to 100 nM.

With `COc1ncnc(C2CC2)c1-c1ncc2ccc(=O)n(Cc3ccc(-c4nc(C(F)(F)F)cn4C4CC4)cc3)c2c1F` [Compound 82], the half-maximal inhibitory concentration (IC50) (in experiment [1]; in the experiment on HCC1806 Ub-PCNA (USP1) (Homo sapiens)) was 10 to 100 nM in each case. The molecule further gave a GI50 with MDA-MB-436 cells (Homo sapiens, 168 h) of 10 to 100 nM.

Regarding `COc1ncnc(C2CC2)c1-c1ncc2ccc(=O)n(Cc3ccc(-c4ncccc4N4CCN(C)CC4)cc3)c2n1` [Compound 85, 2-(4-cyclopropyl-6-methoxypyrimidin-5-yl)-8-({4-[3-(4-methylpiperazin-1-yl)pyridin-2-yl]phenyl}methyl)pyrido[2,3-d]pyrimidin-7-one], the 50% inhibitory concentration (IC50) lay in the range of 10 to 100 nM in experiment [1] and 100 to 1000 nM in the experiment on HCC1806 Ub-PCNA (USP1) (Homo sapiens). The molecule further showed a 50% growth inhibitory concentration (GI50) in the experiment on MDA-MB-436 cells (Homo sapiens, 168 h) of 10 to 100 nM.

For the molecule `COc1ncnc(C2CC2)c1-c1ncc2c(=O)n(C)c(=O)n(Cc3ccc(-c4nc(C(F)(F)F)cn4C(C)C)cc3)c2n1` [Compound I-26, 7-(4-cyclopropyl-6-methoxypyrimidin-5-yl)-1-({4-[1-isopropyl-4-(trifluoromethyl)imidazol-2-yl]phenyl}methyl)-3-methylpyrimido[4,5-d][1,3]diazine-2,4-dione], the IC50 in experiment [1] lay in the range of 10 to 100 nM; in the experiment with HCC1806 Ub-PCNA (USP1) (Homo sapiens), 100 to 1000 nM. The 50% growth inhibitory concentration (GI50) in the experiment on MDA-MB-436 cells (Homo sapiens, 168 h) is 10 to 100 nM.

Take `CCn1cc(C(F)(F)F)nc1-c1ccc(Cn2c(=O)cnc3cnc(-c4c(OC)ncnc4C4CC4)nc32)cc1` [Compound I-28]: the IC50 was 10 to 100 nM in experiment [1] and less than 10 nM with HCC1806 Ub-PCNA (USP1) (Homo sapiens). This molecule also displayed a GI50 with MDA-MB-436 cells (Homo sapiens, 168 h) of less than 10 nM.

`CCn1cc(C(F)(F)F)nc1-c1ccc(Cn2c(=O)c(C(=O)N3CCN(C)CC3)cc3cnc(-c4c(OC)ncnc4C4CC4)nc32)cc1` [Compound I-30, 2-(4-Cyclopropyl-6-Methoxypyrimidin-5-Yl)-8-({4-[1-Ethyl-4-(Trifluoromethyl)Imidazol-2-Yl]Phenyl}Methyl)-6-(4-Methylpiperazine-1-Carbonyl)Pyrido[2,3-d]Pyrimidin-7-One]: the IC50 (in experiment [1]; with HCC1806 Ub-PCNA (USP1) (Homo sapiens)) was 10 to 100 nM in each case. In the experiment with MDA-MB-436 cells (Homo sapiens, 168 h), this molecule yielded a GI50 of 10 to 100 nM.

On to `COc1ncnc(C2CC2)c1-c1ncc2ccc(=O)n(Cc3ccc(-c4nccc(C(F)(F)F)n4)cc3)c2n1` [Compound I-34], for which the IC50 is 100 to 1000 nM in experiment [1] and greater than 1000 nM with HCC1806 Ub-PCNA (USP1) (Homo sapiens). This molecule returned a GI50 in the experiment with MDA-MB-436 cells (Homo sapiens, 168 h) greater than 1000 nM.

For the molecule `COc1ncnc(C2CC2)c1-c1ncc2ccc(=O)n(Cc3ccc(-c4nc(C)ccc4F)cc3)c2n1` [Compound I-35], the IC50 in experiment [1] lay in the range of 100 to 1000 nM; with HCC1806 Ub-PCNA (USP1) (Homo sapiens) it was 10 to 100 nM. The concentration for 50% growth inhibition (GI50) with MDA-MB-436 cells (Homo sapiens, 168 h) was in the range of 10 to 100 nM.

These data come from patent publication US20240092779A1, “USP1 INHIBITORS AND USES THEREOF” (Zentaur Therapeutics USA Inc., priority 2022, published 2024).
